Measured values taken from US5430031A, “Serotoninergic ergoline derivatives” (Farmitalia Carlo Erba S.r.l., priority 1992, dated 1995).
Read-outs that look alike come from different tables or passages of the source.

Key:
group-caged mice = assay: stress-induced hyperthermia, screening model of anxiety; format: in vivo; conditions: Mouse, ip
From the text: This procedure is based upon the antagonism of an increase in rectal temperature observed in group-caged mice as they are being removed from their cohorts.

[1] = biological target: serotonin 2 (5-HT2) receptor (Rattus norvegicus, UniProt P14842); assay: 5-HT2 receptor affinity, 3H-Ketanserin binding test (Experiment 2)
Sequence of serotonin 2 (5-HT2) receptor (P14842 whole entry): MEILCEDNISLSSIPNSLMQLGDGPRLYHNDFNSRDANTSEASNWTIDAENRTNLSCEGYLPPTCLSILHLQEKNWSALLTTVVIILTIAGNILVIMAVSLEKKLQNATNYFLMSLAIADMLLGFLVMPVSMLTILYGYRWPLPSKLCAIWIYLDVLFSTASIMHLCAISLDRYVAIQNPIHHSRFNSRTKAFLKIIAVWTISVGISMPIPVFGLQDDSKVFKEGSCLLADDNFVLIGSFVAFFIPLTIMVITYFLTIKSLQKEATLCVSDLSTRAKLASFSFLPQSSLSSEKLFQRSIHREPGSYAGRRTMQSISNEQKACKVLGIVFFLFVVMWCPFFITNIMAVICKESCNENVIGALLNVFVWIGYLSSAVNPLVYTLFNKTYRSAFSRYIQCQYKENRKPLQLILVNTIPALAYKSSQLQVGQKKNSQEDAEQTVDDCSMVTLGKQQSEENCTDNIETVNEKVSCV
Description: Experiment 2: affinity for serotonin 2(5-HT2)receptor (^3 H-Ketanserin binding test).
The suspension was centrifuged at 40,000×g for 20 minutes at 0° C. again. The resulting pellet was homogenized in 100 volumes of the above buffer and provided as synaptosome membranes solution for the next assay.
To the aliquots (900μ) of synaptosome membranes solution were added 50 μl solution of ^3 H-Ketanserin solution at the terminal concentration of 0.2 mM and 50 μl of test compound or its medium, and incubated at 37° C. for 20 minutes. After completion of the reaction, the mixture was rapidly vacuum-filtered through Whatman® GF/B filters. The filters were washed three times with 5 ml of the above buffer, and then the radioactivity of the residue remaining on the filters was measured by liquid scintillation counter. Non specific binding was determined under the presence of 10 μM of mianserin.

dopamine 2 (D2) receptor = biological target: T1, dopamine 2 (D2) receptor (Rattus norvegicus, UniProt P61169); assay: D2 receptor affinity, 3H-Spiperone binding test (Experiment 3); conditions: 3H-Spiperone 0.2 nM, corpus striatum, 37° C., 20 minutes; read-out: RECEPTOR BINDING I-C50 D2
T1 construct: Freezed corpus striatum dissected out from rats were homogenized; from tissue; host or cells: rat corpus striatum, crude synaptosome membranes
T1 sequence (P61169 whole entry): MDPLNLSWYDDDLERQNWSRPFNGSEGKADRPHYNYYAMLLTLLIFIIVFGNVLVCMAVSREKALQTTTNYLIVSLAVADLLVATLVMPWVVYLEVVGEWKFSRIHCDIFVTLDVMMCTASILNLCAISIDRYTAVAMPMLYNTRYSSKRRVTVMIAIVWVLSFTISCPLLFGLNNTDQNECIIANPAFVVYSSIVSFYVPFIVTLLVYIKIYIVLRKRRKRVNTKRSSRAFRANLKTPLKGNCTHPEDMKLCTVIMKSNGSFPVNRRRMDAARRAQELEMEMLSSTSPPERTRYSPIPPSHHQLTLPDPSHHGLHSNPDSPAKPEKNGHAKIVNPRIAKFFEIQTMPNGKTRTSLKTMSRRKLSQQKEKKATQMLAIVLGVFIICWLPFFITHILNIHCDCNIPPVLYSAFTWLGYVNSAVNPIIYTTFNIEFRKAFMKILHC
Description: Experiment 3: affinity for dopamine 2 (D2)receptor (^3 H-Spiperone binding test.)
The resulting pellet was homogenized in 150 volumes of 50 mM Tris-HCl buffer (PH 7.1) containing 120 mM potassium chloride, 2 mM calcium chloride, 1 mM magnesium chloride, 0,1% ascorbic acid and 10 μM pargyline. The suspension was incubated at 37° C. for 10 minutes and then provided as synaptosome membranes solution for the next assays.
To the aliquots (900μ) of synaptosome membranes solution were added 50 μl of ^3 H-Spiperone solution at the terminal concentration of 0.2 nM and 50 μl of test compound solution or 50 μl of its medium, and incubated at 37° C. for 20 minutes. After completion of the reaction, the mixture was rapidly vacuum-filtered through Whatman® GF/B filters. The filters were washed three times with 5 ml of the above buffer, and then the radioactivity of the residue remaining on the filters was measured by liquid scintillation counter.

[2] = biological target: T2, serotonin 1A (5-HT1A) receptor (Rattus norvegicus, UniProt P19327); assay: 5-HT1A receptor affinity, 3H-8-OH-DPAT binding test (Experiment 1)
T2 construct: Freezed hippocampus dissected out from rats were homogenized; from tissue; host or cells: rat hippocampus, crude synaptosome membranes
T2 sequence (P19327 1-422): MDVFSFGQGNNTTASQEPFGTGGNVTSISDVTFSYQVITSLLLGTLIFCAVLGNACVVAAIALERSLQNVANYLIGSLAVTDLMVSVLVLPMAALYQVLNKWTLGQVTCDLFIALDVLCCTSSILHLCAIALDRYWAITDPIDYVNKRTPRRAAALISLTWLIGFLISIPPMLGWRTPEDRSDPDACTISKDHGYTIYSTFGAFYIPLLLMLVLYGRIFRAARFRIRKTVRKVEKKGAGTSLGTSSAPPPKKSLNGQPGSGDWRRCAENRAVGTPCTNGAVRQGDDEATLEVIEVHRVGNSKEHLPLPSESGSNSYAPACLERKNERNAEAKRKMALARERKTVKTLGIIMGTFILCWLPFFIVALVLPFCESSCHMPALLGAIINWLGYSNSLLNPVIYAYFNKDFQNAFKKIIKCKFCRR
Description: Experiment 1: affinity for serotonin 1A (5-HT1A) receptor [^3 H-8-Hydroxy-2-dipropylaminotetralin (^3 H-8-OH-DPAT)binding test]
After completion of reaction, the suspension was centrifuged at 40,000×g for 20 minutes at 0° C.
Then to the mixture was added 5 ml of ice-cold 50 mM Tris-CHI buffer (pH 7.4) rapidly vacuum-filtered through Whatman® GF/B filters and was washed twice with 5 ml of the same buffer. The radioactivity of the residue remaining on the filters was measured by liquid scintillation counter. Nonspecific binding was determined under the presence of 10^-5 M serotonin (5-HT).

Row | Structure (SMILES) | ED50 (group-caged mice) [mg/kg] | IC50 [1] [nM] | IC50 (dopamine 2 (D2) receptor) [nM] | IC50 [2] [nM] | IC50 ([1]; read-out: RECEPTOR BINDING I-C50 5-HT2, 3H-Ketanserin 0.2 mM (so in the source), rat cerebral cortex, 37° C., 20 minutes) [nM] | IC50 ([2]; read-out: RECEPTOR BINDING I-C50 5-HT1A, 3H-8-OH-DPAT 0.2 nM, rat hippocampus, 37° C., 10 minutes) [nM]
1 | Cc1nc(C(=O)NCC2CC3c4cc(C(C)(C)C)cc5[nH]cc(c45)CC3N(C)C2)cs1 (stereo not drawn) [Example 17, 6-Methyl-8β-(2-methyl-4-thiazoyl)aminomethyl-13-t-butyl-ergoline] | 0.06 | – | – | – | – | –
2 | CN1C[C@H](CN)C[C@@H]2c3cc(C(C)(C)C)cc4[nH]cc(c34)C[C@H]21 [Example 4, 6-Methyl-8β-aminomethyl-13-t-butyl-ergoline] | – | 700 | 3330 | 10 | – | –
3 | CN1CC(CNC(=O)Cc2ccccc2)CC2c3cc(C(C)(C)C)cc4[nH]cc(c34)CC21 (stereo not drawn) [Example 6, 6-Methyl-8β.phenylacetylaminomethyl-13-t-butyl-ergoline] | 0.06 | 700 | 1250 | 8 | – | –
4 | Cc1cc(C(=O)NCC2CC3c4cc(C(C)(C)C)cc5[nH]cc(c45)CC3N(C)C2)nn1C (stereo not drawn) [Example 16, 6-Methyl-8β-(1,5-dimethyl-3-pyrazoyl)aminomethyl-13-t-butyl-ergoline] | 0.06 | – | – | – | – | –
5 | CN1C[C@H](CNC(=O)C(C)(C)C)C[C@@H]2c3cc(C(C)(C)C)cc4[nH]cc(c34)C[C@H]21 [Example 7, 6-Methyl-8β-pivaloylaminomethyl-13-t-butyl-ergoline] | 0.06 | 1200 | 5100 | 10 | – | –
6 | CN1C[C@H](CNC(=O)Nc2ccccc2)C[C@@H]2c3cc(C(C)(C)C)cc4[nH]cc(c34)C[C@H]21 [Example 12, 6-Methyl-8β-phenylaminocarbonylaminomethyl-13-t-butyl-ergoline] | – | 6150 | 2100 | 10 | – | –
7 | CN1C[C@H](CNC(=O)c2cncc(Br)c2)C[C@@H]2c3cc(C(C)(C)C)cc4[nH]cc(c34)C[C@H]21 [Example 9, 6-methyl-8β-(5-bromo-nicotinoyl)aminomethyl-13-t-butyl-ergoline] | 0.03 | 1100 | 2100 | 10 | – | –
8 | CCOC(=O)NC[C@@H]1C[C@@H]2c3cc(C(C)(C)C)cc4[nH]cc(c34)C[C@H]2N(C)C1 [Example 11, 6-Methyl-8β-ethoxycarbonylaminomethyl-13-t-butyl-ergoline] | 0.06 | 3480 | 3100 | 50 | – | –
9 | CN1C[C@H](CO)C[C@@H]2c3cc(C(C)(C)C)cc4[nH]cc(c34)C[C@H]21 [Example 3, 6-Methyl-8β-hydroxymethyl-13-t-butyl-ergoline] | – | 1100 | 4450 | 10 | – | –
10 | COC(=O)C1CC2c3cc(C(C)(C)C)cc4[nH]c(SC)c(c34)CC2N(C)C1 (stereo not drawn) [Example 1, 2-Thiomethyl-6-methyl-8β-methoxycarbonyl (13,14)-t-butyl-ergoline] | – | – | 5200 | – | 6700 | 30
11 | CN1C[C@H](CNC(=O)c2ccncc2)C[C@@H]2c3cc(C(C)(C)C)cc4[nH]cc(c34)C[C@H]21 [Example 8, 6-Methyl-8β-isonicotinoylaminomethyl-13-t-butyl-ergoline] | – | 2100 | 2900 | 80 | – | –
12 | COC(=O)[C@@H]1C[C@@H]2c3cc(C(C)(C)C)cc4[nH]cc(c34)C[C@H]2N(C)C1 [Example 2, 6-Methyl-8β-methoxycarbonyl-13-t-butyl-ergoline] | – | 1870 | 2770 | 10 | – | –
13 | CN1C[C@H](CNC(=O)C2CCCCC2)C[C@@H]2c3cc(C(C)(C)C)cc4[nH]cc(c34)C[C@H]21 [Example 13, 6-Methyl-8β-cyclohexylcarbonylaminomethyl-13-t-butyl-ergoline] | – | 1100 | 1700 | 5 | – | –
